According to patent US9821002B2, “Method for alleviating radiation injury with isorhamnetin-3-O-β-D-glucoside” (Sinotai Oncology Associate., Ltd., priority 2015, dated 2017):

Key:
Type in all cases: cell-based, mouse
BNL CL.2 cells [1] = test: Mitochondrial membrane potential assay (JC-1) after X-ray irradiation; conditions: 5 μM, 2 h pretreatment, X-ray 15 Gy, 120 hours, mean ± SEM
Text: (§1) Four groups of BNL CL.2 cells (i.e., a normal control group referred to as Normal Control Group 1-A, an X-ray control group referred to as X-Ray Control Group 1-A, and two experimental groups referred to as Experimental Groups 1-A to 2-A), and six groups of NMuMG cells (i.e., a normal control group referred to as Normal Control Group 1-B, an X-ray control group referred to as X-Ray Control Group 1-B, two isorhamnetin groups referred to as Isorhamnetin Groups 1 to 2, and two experimental groups referred to as Experimental Groups 1-B to 2-B), were prepared based on the procedure set forth in “Source and cultivation of cell lines” of “Experimental materials”. BNL CL.2 cells in each group were cultivated using 5 mL of a corresponding medium shown in Table 1 and a 6-cm Petri dish in an amount of 2×10^5 cells per dish. Likewise, NMuMG cells in each group were cultivated using 5 mL of a corresponding medium shown in Table 1 and a 6-cm Petri dish in an amount of 2.5×10^5 cells per dish. The cultivation was conducted in an incubator (37° C., 5% CO2) for 24 hours. […]
(§2) 1 mL of trypsin-EDTA was added so as to detach the cells from the bottom of the Petri dish. […] Mitochondrial membrane potential assay was conducted using BD Accuri™ C6 flow cytometry, and the percentage of mitochondrial membrane potential depolarization (%) was calculated using BD Accuri™ C6 software.

NMuMG cells [2] = test: as above; conditions: 15 μM, 2 h pretreatment, X-ray 10 Gy, 48 hours, mean ± SEM
Text: as §1, §2

BNL CL.2 cells [3] = test: Apoptosis assay (FITC Annexin V/PI) after X-ray irradiation; conditions: 2 h pretreatment, X-ray 15 Gy, 96 hours, mean ± SEM
Text: (§3) Four groups of BNL CL.2 cells (i.e., a normal control group referred to as Normal Control Group 1-A, an X-ray control group referred to as X-Ray Control Group 1-A, and two experimental groups referred to as Experimental Groups 1-A to 2-A), and six groups of NMuMG cells (i.e., a normal control group referred to as Normal Control Group 1-B, an X-ray control group referred to as X-Ray Control Group 1-B, two isorhamnetin groups referred to as Isorhamnetin Groups 1 to 2, and two experimental groups referred to as Experimental Groups 1-B to 2-B), were prepared based on the procedure set forth in “Source and cultivation of cell lines” of “Experimental materials”. BNL CL.2 cells in each group were cultivated using 5 mL of a corresponding medium shown in Table 1 and a 6-cm Petri dish in an amount of 2×10^5 cells per dish. Likewise, NMuMG cells in each group were cultivated using 5 mL of a corresponding medium shown in Table 1 and a 6-cm Petri dish in an amount of 2.5×10^5 cells per dish. The cultivation was conducted in an incubator (37° C., 5% CO2) for 24 hours.
(§4) Subsequently, medium was replaced with fresh medium. The obtained cultures in Experimental Groups 1-A, 1-B, 2-A, and 2-B were pretreated with the stock solution of isorhamnetin-3-O-β-D-glucoside, and the obtained cultures in Isorhamnetin Groups 1 to 2 were pretreated with the stock solution of isorhamnetin.
(§5) The culture in each group was then cultivated in an incubator (37° C., 5% CO2) for two hours. The resultant culture was used for the following experiments in sections B to D.
(§6) The cultures in X-Ray Control Group 1-A, X-Ray Control Group 1-B, Isorhamnetin Group 1, Isorhamnetin Group 2, Experimental Group 1-A, Experimental Group 1-B, Experimental Group 2-A, and Experimental Group 2-B, prepared according to section A of “Experimental procedures” in this example, were subjected to X-ray irradiation using a linear accelerator at a dose of 15 Gy. The cultures in Normal Control Groups 1-A and 1-B received no X-ray irradiation treatment. The culture of BNL CL.2 cells in each group was cultivated using a 6-cm Petri dish in an incubator (37° C., 5% CO2) for 96 hours, and the culture of NMuMG cells in each group was cultivated using a 6-cm Petri dish in an incubator (37° C., 5% CO2) for 72 hours. 1 mL of trypsin-EDTA was added to the culture in each group so as to detach the cells from the bottom of the Petri dish. Following this, 1 mL of a fresh medium (corresponding to the medium described in Table 1) was added to neutralize the activity of the trypsin, and the resultant cell suspension was transferred to a centrifuge tube with a pipette, followed by centrifugation at 1200 rpm for three minutes. The supernatant was removed, and the cell pellet thus obtained was washed once with cold PBS (pH 7.4), followed by centrifugation at 1200 rpm for 3 minutes. The supernatant was removed, and 100 μL of cold Annexin V binding buffer (BD Pharmingen™) was added to sufficiently re-suspend the cell pellet thereby obtaining a cell suspension having a cell concentration of 1.0×10^6 cells/mL. Afterward, 5 μL of FITC Annexin V (BD Pharmingen™) and 5 μL of propidium iodide (PI) staining solution (BD Pharmingen™) were added to the obtained cell suspension, followed by mixing evenly and standing in the dark at 4° C. for 30 minutes so as to obtain stained cells.
(§7) Subsequently, the stained cells were analyzed using BD Accuri™ C6 flow cytometry, in which cells that could be stained with FITC Annexin V but not with PI (i.e., FITC Annexin V positive and PI negative) represented cells that were induced with early apoptosis; cells stained with both FITC Annexin V and PI (i.e., FITC Annexin V positive and PI positive) represented cells that were induced with late apoptosis; and cells that could not be stained with FITC Annexin V and PI (i.e., FITC Annexin V negative and PI negative) represented viable cells. The number of stained cells was calculated using BD Accuri™ C6 software. […]

NMuMG cells [4] = test: as above; conditions: 2 h pretreatment, X-ray 15 Gy, 72 hours, mean ± SEM
Text: as §3, §4, §5, §6, §7

With `COc1cc(-c2oc3cc(O)cc(O)c3c(=O)c2O[C@@H]2O[C@H](CO)[C@@H](O)[C@H](O)[C@H]2O)ccc1O` [isorhamnetin-3-O-β-D-glucoside] the “Percentage of mitochondrial membrane potential depolarization” value (BNL CL.2 cells [1]) was 16 ± 2.97 %, the “Percentage of mitochondrial membrane potential depolarization” value (NMuMG cells [2]) was 30.05 ± 1.07 % and the Apoptosis percentage (BNL CL.2 cells [3]; 5 μM) was 30.28 ± 3.09%. It also gave an Apoptosis percentage (BNL CL.2 cells [3]; 30 μM) of 29.35 ± 1.92 %, an Apoptosis percentage (NMuMG cells [4]; 15 μM) of 17.77 ± 0.88 % and an Apoptosis percentage (NMuMG cells [4]; 30 μM) of 16.5 ± 0.62 %.
